Measured values: ChEMBL document CHEMBL3585245, “Synthesis and antiproliferative evaluation of 9-methoxy-6-(piperazin-1-yl)-11H-indeno[1,2-c]quinoline-11-one derivatives. Part 4” (Medchemcomm, 2014)
Calls of active or inactive are those of the source. No cut-off for these calls is given here.

Tested on: not listed separately
Experiment: Antiproliferative activity against human SKHep cells incubated for 72 hrs by MTT assay
Assay type: functional, cell-based
Settings: not given

| Structure (SMILES) | IC50 [µM] |
| --- | --- |
| COc1ccc2c(c1)C(=O)c1c-2c(N2CCN(CC3CO3)CC2)nc2ccccc12 (stereo not drawn) | > 30 |
| COc1ccc2c(c1)C(=O)c1c-2c(N2CCN(C(=O)CCNCCO)CC2)nc2ccccc12 | 4.51 |
| COc1ccc2c(c1)C(=O)c1c-2c(N2CCN(C(=O)CCNCCN(C)C)CC2)nc2ccccc12 | 5.08 |
| CNCCC(=O)N1CCN(c2nc3ccccc3c3c2-c2ccc(OC)cc2C3=O)CC1 | 9.1 |
| CNCC(=O)N1CCN(c2nc3ccccc3c3c2-c2ccc(OC)cc2C3=O)CC1 | 4.83 |
| COc1ccc2c(c1)C(=O)c1c-2c(N2CCN(C(=O)CCN3CCOCC3)CC2)nc2ccccc12 | 15.1 |

Tested on: NCI-H1299
Experiment: Induction of apoptosis in human H1299 cells assessed as late apoptotic cells level at 1 uM annexin V and propidium iodide double staining based flow cytometry (reference value: 1.9 +/- 0.12%)
Assay type: functional
Settings: not given

| Structure (SMILES) | Activity [%] |
| --- | --- |
| COc1ccc2c(c1)C(=O)c1c-2c(N2CCN(CC3CO3)CC2)nc2ccccc12 (stereo not drawn) | 4.51 |

Tested on: NCI-H1299
Experiment: Antiproliferative activity against human H1299 cells incubated for 72 hrs by MTT assay
Assay type: functional, cell-based
Settings: NCI-H1299, 72 h

| Structure (SMILES) | IC50 [µM] |
| --- | --- |
| COc1ccc2c(c1)C(=O)c1c-2c(N2CCN(CC3CO3)CC2)nc2ccccc12 (stereo not drawn) | 7.92 |
| CNCCC(=O)N1CCN(c2nc3ccccc3c3c2-c2ccc(OC)cc2C3=O)CC1 | 5.46 |
| CNCC(=O)N1CCN(c2nc3ccccc3c3c2-c2ccc(OC)cc2C3=O)CC1 | 5.14 |
| COc1ccc2c(c1)C(=O)c1c-2c(N2CCN(C(=O)CCN3CCOCC3)CC2)nc2ccccc12 | 18.7 |

Now from value to compound:

| IC50 [µM] | Structure (SMILES) |
| --- | --- |
| 5.67 | COc1ccc2c(c1)C(=O)c1c-2c(N2CCN(C(=O)CCNCCO)CC2)nc2ccccc12 |
| 5.65 | COc1ccc2c(c1)C(=O)c1c-2c(N2CCN(C(=O)CCNCCN(C)C)CC2)nc2ccccc12 |

Tested on: Detroit 551
Experiment: Antiproliferative activity against human Detroit 551 cells incubated for 72 hrs by MTT assay
Assay type: functional, cell-based
Settings: Detroit 551, 72 h

| Structure (SMILES) | IC50 [µM] |
| --- | --- |
| COc1ccc2c(c1)C(=O)c1c-2c(N2CCN(C(=O)CCNCCO)CC2)nc2ccccc12 | 8.38 |
| COc1ccc2c(c1)C(=O)c1c-2c(N2CCN(C(=O)CCNCCN(C)C)CC2)nc2ccccc12 | 2.53 |
| CNCCC(=O)N1CCN(c2nc3ccccc3c3c2-c2ccc(OC)cc2C3=O)CC1 | 2.92 |
| CNCC(=O)N1CCN(c2nc3ccccc3c3c2-c2ccc(OC)cc2C3=O)CC1 | 4.84 |

Tested on: NCI-H1299
Experiment: Induction of DNA damage in human H1299 cells at 10 uM incubated for 24 hrs by single cell electrophoresis-based alkaline comet assay
Assay type: functional
Settings: not given

| Structure (SMILES) | Activity |
| --- | --- |
| COc1ccc2c(c1)C(=O)c1c-2c(N2CCN(CC3CO3)CC2)nc2ccccc12 (stereo not drawn) | Active |

Tested on: MDA-MB-231
Experiment: Antiproliferative activity against human MDA-MB-231 cells incubated for 72 hrs by MTT assay
Assay type: functional, cell-based
Settings: MDA-MB-231, 72 h

| Structure (SMILES) | IC50 [µM] |
| --- | --- |
| COc1ccc2c(c1)C(=O)c1c-2c(N2CCN(CC3CO3)CC2)nc2ccccc12 (stereo not drawn) | 7.65 |
| CNCCC(=O)N1CCN(c2nc3ccccc3c3c2-c2ccc(OC)cc2C3=O)CC1 | 5.89 |
| CNCC(=O)N1CCN(c2nc3ccccc3c3c2-c2ccc(OC)cc2C3=O)CC1 | 5.92 |
| COc1ccc2c(c1)C(=O)c1c-2c(N2CCN(C(=O)CCN3CCOCC3)CC2)nc2ccccc12 | 21.9 |

The next lines start with the values.

| IC50 [µM] | Structure (SMILES) |
| --- | --- |
| 6.08 | COc1ccc2c(c1)C(=O)c1c-2c(N2CCN(C(=O)CCNCCO)CC2)nc2ccccc12 |
| 7.44 | COc1ccc2c(c1)C(=O)c1c-2c(N2CCN(C(=O)CCNCCN(C)C)CC2)nc2ccccc12 |

Tested on: NCI-H1299
Experiment: Induction of apoptosis in human H1299 cells assessed as late apoptotic cells level at 10 uM annexin V and propidium iodide double staining based flow cytometry (reference value: 1.9 +/- 0.12%)
Assay type: functional
Settings: not given

| Structure (SMILES) | Activity [%] |
| --- | --- |
| COc1ccc2c(c1)C(=O)c1c-2c(N2CCN(CC3CO3)CC2)nc2ccccc12 (stereo not drawn) | 7.57 |

Tested on: NCI-H1299
Experiment: Induction of apoptosis in human H1299 cells assessed as early apoptotic cells level at 5 uM annexin V and propidium iodide double staining based flow cytometry (reference value: 0.4 +/- 0.17%)
Assay type: functional
Settings: not given

| Structure (SMILES) | Activity [%] |
| --- | --- |
| COc1ccc2c(c1)C(=O)c1c-2c(N2CCN(CC3CO3)CC2)nc2ccccc12 (stereo not drawn) | 1.57 |

Tested on: NCI-H1299
Experiment: Induction of apoptosis in human H1299 cells assessed as late apoptotic cells level at 5 uM annexin V and propidium iodide double staining based flow cytometry (reference value: 1.9 +/- 0.12%)
Assay type: functional
Settings: not given

| Structure (SMILES) | Activity [%] |
| --- | --- |
| COc1ccc2c(c1)C(=O)c1c-2c(N2CCN(CC3CO3)CC2)nc2ccccc12 (stereo not drawn) | 4.98 |

Tested on: not listed separately
Experiment: Antiproliferative activity against human 786-O cells incubated for 72 hrs by MTT assay
Assay type: functional, cell-based
Settings: 786-0, 72 h

| Structure (SMILES) | IC50 [µM] |
| --- | --- |
| COc1ccc2c(c1)C(=O)c1c-2c(N2CCN(CC3CO3)CC2)nc2ccccc12 (stereo not drawn) | 19.1 |
| COc1ccc2c(c1)C(=O)c1c-2c(N2CCN(C(=O)CCNCCO)CC2)nc2ccccc12 | 2.03 |
| COc1ccc2c(c1)C(=O)c1c-2c(N2CCN(C(=O)CCNCCN(C)C)CC2)nc2ccccc12 | 7.03 |
| CNCCC(=O)N1CCN(c2nc3ccccc3c3c2-c2ccc(OC)cc2C3=O)CC1 | 6 |
| CNCC(=O)N1CCN(c2nc3ccccc3c3c2-c2ccc(OC)cc2C3=O)CC1 | 6.2 |
| COc1ccc2c(c1)C(=O)c1c-2c(N2CCN(C(=O)CCN3CCOCC3)CC2)nc2ccccc12 | > 30 |

Tested on: AGS
Experiment: Antiproliferative activity against human AGS cells incubated for 72 hrs by MTT assay
Assay type: functional, cell-based
Settings: not given

| Structure (SMILES) | IC50 [µM] |
| --- | --- |
| COc1ccc2c(c1)C(=O)c1c-2c(N2CCN(CC3CO3)CC2)nc2ccccc12 (stereo not drawn) | 21.4 |
| CNCCC(=O)N1CCN(c2nc3ccccc3c3c2-c2ccc(OC)cc2C3=O)CC1 | 8.11 |
| CNCC(=O)N1CCN(c2nc3ccccc3c3c2-c2ccc(OC)cc2C3=O)CC1 | 7.15 |
| COc1ccc2c(c1)C(=O)c1c-2c(N2CCN(C(=O)CCN3CCOCC3)CC2)nc2ccccc12 | 12 |

More lines, now with the values ahead:

| IC50 [µM] | Structure (SMILES) |
| --- | --- |
| 3.67 | COc1ccc2c(c1)C(=O)c1c-2c(N2CCN(C(=O)CCNCCO)CC2)nc2ccccc12 |
| 4.94 | COc1ccc2c(c1)C(=O)c1c-2c(N2CCN(C(=O)CCNCCN(C)C)CC2)nc2ccccc12 |

Tested on: HeLa
Experiment: Antiproliferative activity against human HeLa cells incubated for 72 hrs by MTT assay
Assay type: functional, cell-based
Settings: not given

| Structure (SMILES) | IC50 [µM] |
| --- | --- |
| COc1ccc2c(c1)C(=O)c1c-2c(N2CCN(CC3CO3)CC2)nc2ccccc12 (stereo not drawn) | 10.7 |
| CNCCC(=O)N1CCN(c2nc3ccccc3c3c2-c2ccc(OC)cc2C3=O)CC1 | 1.9 |
| CNCC(=O)N1CCN(c2nc3ccccc3c3c2-c2ccc(OC)cc2C3=O)CC1 | 2.04 |
| COc1ccc2c(c1)C(=O)c1c-2c(N2CCN(C(=O)CCN3CCOCC3)CC2)nc2ccccc12 | 14.3 |

Next, values leading:

| IC50 [µM] | Structure (SMILES) |
| --- | --- |
| 3.13 | COc1ccc2c(c1)C(=O)c1c-2c(N2CCN(C(=O)CCNCCO)CC2)nc2ccccc12 |
| 4.78 | COc1ccc2c(c1)C(=O)c1c-2c(N2CCN(C(=O)CCNCCN(C)C)CC2)nc2ccccc12 |

Tested on: NCI-H1299
Experiment: Induction of apoptosis in human H1299 cells assessed as early apoptotic cells level at 1 uM annexin V and propidium iodide double staining based flow cytometry (reference value: 0.4 +/- 0.17%)
Assay type: functional
Settings: not given

| Structure (SMILES) | Activity [%] |
| --- | --- |
| COc1ccc2c(c1)C(=O)c1c-2c(N2CCN(CC3CO3)CC2)nc2ccccc12 (stereo not drawn) | 1.83 |

Tested on: SAS
Experiment: Antiproliferative activity against human SAS cells incubated for 72 hrs by MTT assay
Assay type: functional, cell-based
Settings: not given

| Structure (SMILES) | IC50 [µM] |
| --- | --- |
| COc1ccc2c(c1)C(=O)c1c-2c(N2CCN(CC3CO3)CC2)nc2ccccc12 (stereo not drawn) | > 30 |
| COc1ccc2c(c1)C(=O)c1c-2c(N2CCN(C(=O)CCNCCO)CC2)nc2ccccc12 | 9.1 |
| COc1ccc2c(c1)C(=O)c1c-2c(N2CCN(C(=O)CCNCCN(C)C)CC2)nc2ccccc12 | 8.8 |
| CNCCC(=O)N1CCN(c2nc3ccccc3c3c2-c2ccc(OC)cc2C3=O)CC1 | 6.9 |
| CNCC(=O)N1CCN(c2nc3ccccc3c3c2-c2ccc(OC)cc2C3=O)CC1 | 7.4 |
| COc1ccc2c(c1)C(=O)c1c-2c(N2CCN(C(=O)CCN3CCOCC3)CC2)nc2ccccc12 | > 30 |

Tested on: NCI-H1299
Experiment: Induction of apoptosis in human H1299 cells assessed as early apoptotic cells level at 10 uM annexin V and propidium iodide double staining based flow cytometry (reference value: 0.4 +/- 0.17%)
Assay type: functional
Settings: not given

| Structure (SMILES) | Activity [%] |
| --- | --- |
| COc1ccc2c(c1)C(=O)c1c-2c(N2CCN(CC3CO3)CC2)nc2ccccc12 (stereo not drawn) | 3.29 |
